These results are taken from US20260355196A1, “INHIBITORS AND DEGRADERS OF PIP4K PROTEIN” (Larkspur Biosciences, Inc., priority 2023, published 2026).

The target in the first experiment is T1, PIP4K2C (Homo sapiens, UniProt Q8TBX8).
T1 sequence (Q8TBX8 1-421): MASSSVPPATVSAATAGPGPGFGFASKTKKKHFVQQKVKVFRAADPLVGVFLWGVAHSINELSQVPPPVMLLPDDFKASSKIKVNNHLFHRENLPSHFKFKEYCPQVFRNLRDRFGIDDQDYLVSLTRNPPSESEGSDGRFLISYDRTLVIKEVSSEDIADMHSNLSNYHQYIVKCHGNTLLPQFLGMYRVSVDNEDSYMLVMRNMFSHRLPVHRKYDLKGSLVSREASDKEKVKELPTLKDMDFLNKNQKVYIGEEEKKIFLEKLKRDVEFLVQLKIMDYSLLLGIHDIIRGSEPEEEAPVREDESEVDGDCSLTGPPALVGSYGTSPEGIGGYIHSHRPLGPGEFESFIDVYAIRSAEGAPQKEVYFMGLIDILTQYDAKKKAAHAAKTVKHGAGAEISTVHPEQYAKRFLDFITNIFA
The experiment can be described thus: HiBiT PIP4K2C degradation assay in MOLT-4 cells (endogenous PIP4K2C C-terminally tagged with HiBiT). It is filed as cell-based. Particulars: 6 hours of incubation time, rather than 24 hours; MOLT-4, top concentration 10 micromolar; read-out: HiBIT-degradation MOLT4 PIP4k2C DC50 (6 hours, marked *). The arrangement: untagged in primary human PBMCs and monocyte-derived dendritic cells. In a few lines:
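Endogenous PIP4K2C was C-terminally HiBiT-tagged by CRISPR-Cas9 in MOLT-4 cells, which were treated with a 10-point, 3-fold dilution series from 10 micromolar in duplicate for 24 or 6 hours at 37 C. Remaining protein was read by HiBiT lytic luminescence, and DC50 came from a Hill fit.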
(In general: With HiBiT, luminescence reflects the tagged protein that the partner subunit can reach.)
As for `O=C1CCC(Nc2ccc(C3CCN(CCC4CCN(C(=O)[C@@H]5CCC[C@H](Nc6ncc(F)c(-c7cccc(-n8ccccc8=O)c7)n6)C5)CC4)CC3)c(F)c2)C(=O)N1` (stereo partly drawn) [Compound 308, 3-((3-fluoro-4-(1-(2-(1-((1R,3S)-3-((5-fluoro-4-(3-(2-oxopyridin-1(2H)-yl)phenyl)pyrimidin-2-yl)amino)cyclohexane-1-carbonyl)piperidin-4-yl)ethyl)piperidin-4-yl)phenyl)amino)piperidine-2,6-dione], the DC50 (commonly the concentration giving 50% degradation) is < 500 nM.

Still in this experiment, the particulars now being: 24 hours incubation, MOLT-4, top concentration 10 micromolar; read-out: HiBIT-degradation MOLT4 PIP4k2C 24 hours DC50.
Consider `Cn1c(=O)n(C2CCC(=O)NC2=O)c2ccc(C3CCN(CCC4CCN(C(=O)[C@H]5CCC[C@@H](Nc6ncc(Cl)c(-c7cccc(-c8ccccc8)c7)n6)C5)CC4)CC3)cc21` (stereo partly drawn) [Compound 281, 3-(5-(1-(2-(1-((1S,3R)-3-((4-([1,1′-biphenyl]-3-yl)-5-chloropyrimidin-2-yl)amino)cyclohexane-1-carbonyl)piperidin-4-yl)ethyl)piperidin-4-yl)-3-methyl-2-oxo-2,3-dihydro-1H-benzo[d]imidazol-1-yl)piperidine-2,6-dione], for which the DC50 is < 500 nM. With `O=C1CCC(c2ccc(N3CCC(O)(CC(=O)N4CCC(C(=O)N5CCC(Nc6ncc(Cl)c(-c7cccc(-c8ccc(F)cc8)c7)n6)CC5)CC4)CC3)c(F)c2)C(=O)N1` (centres unmarked) [Compound 282, 3-(4-(4-(2-(4-(4-((5-chloro-4-(4′-fluoro-[1,1′-biphenyl]-3-yl)pyrimidin-2-yl)amino)piperidine-1-carbonyl)piperidin-1-yl)-2-oxoethyl)-4-hydroxypiperidin-1-yl)-3-fluorophenyl)piperidine-2,6-dione], the DC50 was < 500 nM. On to `O=C1CCC(Nc2ccc(N3CCC(N4CCC(C(=O)N[C@H]5CC[C@H](Nc6ncc(Cl)c(-c7cccc(-c8ccc(F)cc8)c7)n6)CC5)CC4)CC3)cc2)C(=O)N1` (stereo partly drawn) [Compound 285, trans-N-(4-((5-chloro-4-(4′-fluoro-[1,1′-biphenyl]-3-yl)pyrimidin-2-yl)amino)cyclohexyl)-1′-(4-((2,6-dioxopiperidin-3-yl)amino)phenyl)-[1,4′-bipiperidine]-4-carboxamide], for which the DC50 was < 500 nM. The same measure, in the same setting: under `Cn1c(=O)n(C2CCC(=O)NC2=O)c2ccc(C3CCN(CC4CCN(CC(=O)N5CCC(Nc6ncc(F)c(-c7cccc(-c8ccccc8)c7)n6)CC5)CC4)CC3)cc21` (centres unmarked) [Compound 286, 3-(5-(1-((1-(2-(4-((4-([1,1′-biphenyl]-3-yl)-5-fluoropyrimidin-2-yl)amino)piperidin-1-yl)-2-oxoethyl)piperidin-4-yl)methyl)piperidin-4-yl)-3-methyl-2-oxo-2,3-dihydro-1H-benzo[d]imidazol-1-yl)piperidine-2,6-dione] stands < 500 nM.

Consider `Cn1c(=O)n(C2CCC(=O)NC2=O)c2ccc(C3CCN(CC4CCN(CC(=O)N5CCC(Nc6ncc(Cl)c(-c7cccc(-c8ccc(F)cc8)c7)n6)CC5)CC4)CC3)cc21` (centres unmarked) [Compound 287, 3-(5-(1-((1-(2-(4-((5-chloro-4-(4′-fluoro-[1,1′-biphenyl]-3-yl)pyrimidin-2-yl)amino)piperidin-1-yl)-2-oxoethyl)piperidin-4-yl)methyl)piperidin-4-yl)-3-methyl-2-oxo-2,3-dihydro-1H-benzo[d]imidazol-1-yl)piperidine-2,6-dione], for which the half-maximal degradation concentration (DC50) was < 500 nM. Consider `Cn1c(=O)n(C2CCC(=O)NC2=O)c2ccc(C3CCN(CC4CCN(CC(=O)N5CCC(Nc6ncc(F)c(-c7cccc(-c8ccc(F)cc8)c7)n6)CC5)CC4)CC3)cc21` (centres unmarked) [Compound 288, 3-(5-(1-((1-(2-(4-((5-fluoro-4-(4′-fluoro-[1,1′-biphenyl]-3-yl)pyrimidin-2-yl)amino)piperidin-1-yl)-2-oxoethyl)piperidin-4-yl)methyl)piperidin-4-yl)-3-methyl-2-oxo-2,3-dihydro-1H-benzo[d]imidazol-1-yl)piperidine-2,6-dione], for which the DC50 was < 500 nM. Regarding `Cn1nc(C2CCC(=O)NC2=O)c2ccc(C3CCN(C(=O)CN4CCC(O)(C(=O)N5CCC(Nc6ncc(Cl)c(-c7cccc(-c8ccc(F)cc8)c7)n6)CC5)CC4)CC3)cc21` (centres unmarked) [Compound 289, 3-(6-(1-(2-(4-(4-((5-chloro-4-(4′-fluoro-[1,1′-biphenyl]-3-yl)pyrimidin-2-yl)amino)piperidine-1-carbonyl)-4-hydroxypiperidin-1-yl)acetyl)piperidin-4-yl)-1-methyl-1H-indazol-3-yl)piperidine-2,6-dione], the DC50 was < 500 nM.

With `Cn1nc(C2CCC(=O)NC2=O)c2ccc(C3CCN(CC(=O)N4CCC(O)(C(=O)N5CCC(Nc6ncc(Cl)c(-c7cccc(-c8ccc(F)cc8)c7)n6)CC5)CC4)CC3)cc21` (centres unmarked) [Compound 290, 3-(6-(1-(2-(4-(4-((5-chloro-4-(4′-fluoro-[1,1′-biphenyl]-3-yl)pyrimidin-2-yl)amino)piperidine-1-carbonyl)-4-hydroxypiperidin-1-yl)-2-oxoethyl)piperidin-4-yl)-1-methyl-1H-indazol-3-yl)piperidine-2,6-dione], the DC50 was < 500 nM. Turning to `O=C1CCC(n2c(=O)oc3c(C4CCN(C(=O)CN5CCC(C(=O)N6CCC(Nc7ncc(Cl)c(-c8cccc(-c9ccc(F)cc9)c8)n7)CC6)CC5)CC4)cccc32)C(=O)N1` (centres unmarked) [Compound 293, 3-(7-(1-(2-(4-(4-((5-chloro-4-(4′-fluoro-[1,1′-biphenyl]-3-yl)pyrimidin-2-yl)amino)piperidine-1-carbonyl)piperidin-1-yl)acetyl)piperidin-4-yl)-2-oxobenzo[d]oxazol-3 (2H)-yl)piperidine-2,6-dione], the half-maximal degradation concentration (DC50) is < 500 nM. As to `O=C1CCC(n2c(=O)oc3cc(C4CCN(CC5CCN(CC(=O)N6CCC(Nc7ncc(Cl)c(-c8cccc(-c9ccc(F)cc9)c8)n7)CC6)CC5)CC4)ccc32)C(=O)N1` (centres unmarked) [Compound 294, 3-(6-(1-((1-(2-(4-((5-chloro-4-(4′-fluoro-[1,1′-biphenyl]-3-yl)pyrimidin-2-yl)amino)piperidin-1-yl)-2-oxoethyl)piperidin-4-yl)methyl)piperidin-4-yl)-2-oxobenzo[d]oxazol-3 (2H)-yl)piperidine-2,6-dione], the 50% degradation concentration (DC50) is < 500 nM. Same read-out and setting: the value for `O=C1CCC(N2Cc3c(OC4CCN(C5CCCN(CC(=O)N6CCC(Nc7ncc(Cl)c(-c8cccc(-c9ccc(F)cc9)c8)n7)CC6)C5)CC4)cccc3C2=O)C(=O)N1` (centres unmarked) [Compound 296, 3-(4-((1′-(2-(4-((5-chloro-4-(4′-fluoro-[1,1′-biphenyl]-3-yl)pyrimidin-2-yl)amino)piperidin-1-yl)-2-oxoethyl)-[1,3′-bipiperidin]-4-yl)oxy)-1-oxoisoindolin-2-yl)piperidine-2,6-dione] was < 500 nM; that for `Cn1c(=O)n(C2CCC(=O)NC2=O)c2ccc(C3CCN(C4CCN(CCC(=O)N5CCC(Nc6ncc(Cl)c(-c7cccc(-c8ccc(F)cc8)c7)n6)CC5)CC4)CC3)cc21` (centres unmarked) [Compound 300, 3-(5-(1′-(3-(4-((5-chloro-4-(4′-fluoro-[1,1′-biphenyl]-3-yl)pyrimidin-2-yl)amino)piperidin-1-yl)-3-oxopropyl)-[1,4′-bipiperidin]-4-yl)-3-methyl-2-oxo-2,3-dihydro-1H-benzo[d]imidazol-1-yl)piperidine-2,6-dione] was < 500 nM; that for `Cn1c(=O)n(C2CCC(=O)NC2=O)c2ccc(C3CCN(CC4CCN(CC(=O)N[C@H]5CC[C@H](Nc6ncc(F)c(-c7cccc(-n8ccccc8=O)c7)n6)CC5)CC4)CC3)cc21` (stereo partly drawn) [Compound 301, trans-2-(4-((4-(1-(2,6-dioxopiperidin-3-yl)-3-methyl-2-oxo-2,3-dihydro-1H-benzo[d]imidazol-5-yl)piperidin-1-yl)methyl)piperidin-1-yl)-N-(4-((5-fluoro-4-(3-(2-oxopyridin-1(2H)-yl)phenyl)pyrimidin-2-yl)amino)cyclohexyl)acetamide] was < 500 nM. Still for that read-out and setting: under `O=C1CCC(n2c(=O)oc3cc(C4CCN(CC5CCN(CC(=O)N6CCC(Nc7ncc(F)c(-c8cccc(-n9ccccc9=O)c8)n7)CC6)CC5)CC4)ccc32)C(=O)N1` (centres unmarked) [Compound 303, 3-(6-(1-((1-(2-(4-((5-fluoro-4-(3-(2-oxopyridin-1(2H)-yl)phenyl)pyrimidin-2-yl)amino)piperidin-1-yl)-2-oxoethyl)piperidin-4-yl)methyl)piperidin-4-yl)-2-oxobenzo[d]oxazol-3 (2H)-yl)piperidine-2,6-dione] stands < 500 nM. Still for that read-out and setting: under `Cn1nc(C2CCC(=O)NC2=O)c2ccc(C3CCN(CC4CCN(CC(=O)N[C@H]5CC[C@H](Nc6ncc(F)c(-c7cccc(-n8ccccc8=O)c7)n6)CC5)CC4)CC3)cc21` (stereo partly drawn) [Compound 304, trans-2-(4-((4-(3-(2,6-dioxopiperidin-3-yl)-1-methyl-1H-indazol-6-yl)piperidin-1-yl)methyl)piperidin-1-yl)-N-(4-((5-fluoro-4-(3-(2-oxopyridin-1(2H)-yl)phenyl)pyrimidin-2-yl)amino)cyclohexyl)acetamide] stands < 500 nM; under `O=C1CCC(Nc2ccc(N3CCC(N4CCC(C(=O)N[C@H]5CC[C@H](Nc6ncc(F)c(-c7cccc(-n8ccccc8=O)c7)n6)CC5)CC4)CC3)c(F)c2)C(=O)N1` (stereo partly drawn) [Compound 305, trans-1′-(4-((2,6-dioxopiperidin-3-yl)amino)-2-fluorophenyl)-N-(4-((5-fluoro-4-(3-(2-oxopyridin-1(2H)-yl)phenyl)pyrimidin-2-yl)amino)cyclohexyl)-[1,4′-bipiperidine]-4-carboxamide], < 500 nM.
